Data: patent publication US20230048132A1, “CYCLIN-DEPENDENT KINASE INHIBITORS” (SPV THERAPEUTICS INC., priority 2018, published 2023)
Where “and” joins values, the source holds several entries; their conditions need not be identical. Identical values can stand only once. Like-named read-outs stand apart in the source and are kept apart here.

Legend:
CDK4-CYCLIND1 = CDK4-CYCLIND1 (Homo sapiens, UniProt P11802); assay: CDK inhibition assay (microfluidic LabChip, IC50 format)
CDK2-CYCLINE = molecular target: T1, CDK2-CYCLINE (Homo sapiens, UniProt P24941); assay: as above; assay type: biochemical; conditions: Table 3; purified enantiomers; read-out: CDK2-E (E1/E2)
T1 construct: purchased Millipore

CDK9-CYCLINT1 = molecular target: T2, CDK9-CYCLINT1 (Homo sapiens, UniProt P50750); assay: as above; assay type: biochemical
T2 construct: purchased Carna

CDK2-CYCLINA = molecular target: T3, CDK2-CYCLINA (Homo sapiens, UniProt P24941); assay: as above; assay type: biochemical
T3 construct: purchased Millipore

CDK6-CYCLIND3 = molecular target: T4, CDK6-CYCLIND3 (Homo sapiens, UniProt Q00534); assay: as above; assay type: biochemical
T4 construct: purchased Carna

all cell lines tested = assay: 2D cell proliferation assay, geometric mean over the cell line panel; assay type: cell-based; conditions: Table 5 lower part; geometric mean over the 8-line panel; read-out: Geomean abs. IC50 value
Description: (§1) Viability of the cells was analyzed by using the CellTiter-Blue® Cell Viability Assay (Promega), and was performed according to manufacturer's instructions. Briefly, cells were harvested from exponential phase cultures (Chapter 6.6), counted and plated in 96-well flat-bottom microtiter plates at a cell density of 4,000-60,000 cells/well in a volume of 140 μl per well. After a 24 hours recovery period, 10 μL cell culture medium (six control wells/plate) or culture medium with test compound were added (Chapter 6.2). The compounds were applied at five concentrations in full-log increments up to 100 μM in duplicate. Cultures were incubated at 37° C. and 5% CO2 in a humidified atmosphere for another three days. After three days of treatment, 20 μl/well CellTiter-Blue® reagent was added. Following incubation with CellTiter-Blue® reagent for up to four hours, fluorescence (FU) was measured by using the Enspire Multimode Plate Reader (excitation λ=570 nm, emission λ=600 nm). For calculations, the mean values of duplicate/sextuplicate (untreated control) data were used.
(§2) IC values are reported as relative IC50 values and absolute IC50 and IC70 values. […] The absolute IC70 value gives the concentration of the test compound that achieves T/C=30%. The relative IC50 value is the concentration of test compound that gives a response halfway between the top and bottom plateau of the sigmoidal concentration-response curve (inflection point of the curve). Calculation was done by 4parameter non-linear curve fit (Oncotest Data Warehouse Software).
(§3) If an IC50 or IC70 value could not be determined within the examined dose range (because a compound was either too active or lacked activity), the lowest or highest concentration studied was used for calculation of the geometric mean value.
The overall potency of a compound was determined by the geometric mean IC50/IC70 values of all individual IC50/IC70 values. In the heatmap representation of IC50 and IC70 values, the distribution of the IC50 or IC70 values obtained for a test compound in the individual cell lines is given in relation to the geometric mean IC50 or IC70 value, obtained over all PDX models tested. The individual IC values range from 1/32-fold geometric mean IC (corresponding to very potent compound activity or high tumor sensitivity) to 32-fold geometric mean IC (corresponding to lack of compound activity or tumor resistance). The heatmap presentation, therefore, represents an antiproliferative “fingerprint” profile of a test compound.

LXFA A549 = assay: 2D cell proliferation assay (CellTiter-Blue); assay type: cell-based; conditions: Homo sapiens, 72 h, three days of treatment, read-out: abs. IC50
Description: as §1
(§4) An assay was considered fully evaluable if the following quality control criteria were fulfilled: • control/background ratio>3.0-Z′-factor calculated within the assay plate>0.5 [7]—coefficient of variation in the growth control wells <30%
(§5) Drug effects were expressed in terms of the percentage of the fluorescence signal, obtained by comparison of the mean signal in the treated wells with the mean signal of the untreated controls (expressed by the test-versus-control value, T/C-value [%]):
as §2, §3

MEXF WM-266-4 = assay: 2D cell proliferation assay (CellTiter-Blue); assay type: cell-based; conditions: Homo sapiens, 72 h, three days of treatment, read-out: abs. IC50
Description: as §1, §4, §5, §2, §3

LEXFAL MOLT-4 = assay: 2D cell proliferation assay (CellTiter-Blue); assay type: cell-based; conditions: Homo sapiens, 72 h, three days of treatment, read-out: abs. IC50
Description: as §1, §4, §5, §2, §3

LEXFAM MV4-11 = assay: 2D cell proliferation assay (CellTiter-Blue); assay type: cell-based; conditions: Homo sapiens, 72 h, three days of treatment, read-out: abs. IC50
Description: as §1, §4, §5, §2, §3

MAXFLB MCF7 (ER+) = assay: 2D cell proliferation assay (CellTiter-Blue); assay type: cell-based; conditions: Homo sapiens, 72 h, three days of treatment, read-out: abs. IC50
Description: as §1, §4, §5, §2, §3

MAXFTN ZR-75-1 (ER+) = assay: 2D cell proliferation assay (CellTiter-Blue); assay type: cell-based; conditions: Homo sapiens, 72 h, three days of treatment, read-out: abs. IC50
Description: as §1, §4, §5, §2, §3

MAXFTN MDA-MB-231 (ER−) = assay: 2D cell proliferation assay (CellTiter-Blue); assay type: cell-based; conditions: Homo sapiens, 72 h, three days of treatment, read-out: abs. IC50
Description: as §1, §4, §5, §2, §3

LXFL NCl-H1299 = assay: 2D cell proliferation assay (CellTiter-Blue); assay type: cell-based; conditions: 72 h, three days of treatment, read-out: abs. IC50
Description: as §1, §4, §5, §2, §3

CDK7 CyclinH = CDK7 CyclinH (Homo sapiens, UniProt P50613); assay: CDK inhibition assay (microfluidic LabChip, IC50 format); assay type: biochemical; conditions: Table 4a
[1] = Pharmacokinetics after oral administration; assay type: in vivo; conditions: rat, plasma, rats
Description: (§6) Nonclinical pharmacokinetic (PK) parameters of lead CDK4/6/9 inhibitors were determined in an intravenous (IV) and oral study (p.o.) conducted in rats. Lead compounds were each administered as a single oral dose at 100 mg/kg or by IV bolus via the caudal vein at the dose of 30 mg/kg. Blood samples were collected at 0.25, 0.5, 1, 2, 4, 8, 12, and 24 hours post i.v. administration, and at 1, 2, 4, 8, 24 and 48 hours post oral administration. Plasma was processed for drug concentration analysis using a validated LCMS/MS method, and PK parameters were calculated by using WinNonlin.

[2] = Pharmacokinetics after IV bolus; assay type: in vivo; conditions: rat, plasma; rats; IV bolus 30 mg/kg; N = 3
Description: as §6

[3] = CDK4 (E1/E2), Table 3, purified enantiomers
[4] = Table 3, purified enantiomers, read-out: CDK9-T (E1/E2)
[5] = Table 3, purified enantiomers, read-out: CDK2-A (E1/E2)
[6] = Table 3, purified enantiomers, read-out: CDK6 (E1/E2)
[7] = oral administration 100 mg/kg, N = 3

CDK4-CYCLIND1, sequence (P11802 whole entry): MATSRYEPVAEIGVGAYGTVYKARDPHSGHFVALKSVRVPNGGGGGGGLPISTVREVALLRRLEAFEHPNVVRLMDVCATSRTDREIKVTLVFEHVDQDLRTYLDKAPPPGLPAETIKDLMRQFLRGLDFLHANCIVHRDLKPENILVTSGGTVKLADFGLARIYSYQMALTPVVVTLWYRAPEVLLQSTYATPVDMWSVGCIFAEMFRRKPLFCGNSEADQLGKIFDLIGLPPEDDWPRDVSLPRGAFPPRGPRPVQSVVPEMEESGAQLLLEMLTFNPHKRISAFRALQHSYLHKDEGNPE
CDK4-CYCLIND1, sequence (P24385 whole entry partner): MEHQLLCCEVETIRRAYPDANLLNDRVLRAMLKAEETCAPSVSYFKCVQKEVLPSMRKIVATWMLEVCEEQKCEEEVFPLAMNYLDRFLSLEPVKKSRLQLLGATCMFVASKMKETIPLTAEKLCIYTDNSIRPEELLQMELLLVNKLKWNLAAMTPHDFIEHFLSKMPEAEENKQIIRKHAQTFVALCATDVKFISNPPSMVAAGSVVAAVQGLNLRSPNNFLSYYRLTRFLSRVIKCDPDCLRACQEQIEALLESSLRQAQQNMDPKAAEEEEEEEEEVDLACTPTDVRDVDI
T2 sequence (P50750 whole entry): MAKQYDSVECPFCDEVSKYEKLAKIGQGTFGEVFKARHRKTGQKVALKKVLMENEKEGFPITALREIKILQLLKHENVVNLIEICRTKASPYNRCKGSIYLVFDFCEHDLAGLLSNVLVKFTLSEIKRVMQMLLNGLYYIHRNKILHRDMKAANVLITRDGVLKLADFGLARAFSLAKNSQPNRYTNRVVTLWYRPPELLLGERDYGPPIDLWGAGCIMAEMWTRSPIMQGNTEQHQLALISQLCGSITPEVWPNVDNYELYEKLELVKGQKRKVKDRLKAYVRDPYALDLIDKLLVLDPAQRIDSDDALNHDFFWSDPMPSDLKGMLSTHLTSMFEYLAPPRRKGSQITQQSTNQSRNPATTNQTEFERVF
T2 sequence (O60563 whole entry partner): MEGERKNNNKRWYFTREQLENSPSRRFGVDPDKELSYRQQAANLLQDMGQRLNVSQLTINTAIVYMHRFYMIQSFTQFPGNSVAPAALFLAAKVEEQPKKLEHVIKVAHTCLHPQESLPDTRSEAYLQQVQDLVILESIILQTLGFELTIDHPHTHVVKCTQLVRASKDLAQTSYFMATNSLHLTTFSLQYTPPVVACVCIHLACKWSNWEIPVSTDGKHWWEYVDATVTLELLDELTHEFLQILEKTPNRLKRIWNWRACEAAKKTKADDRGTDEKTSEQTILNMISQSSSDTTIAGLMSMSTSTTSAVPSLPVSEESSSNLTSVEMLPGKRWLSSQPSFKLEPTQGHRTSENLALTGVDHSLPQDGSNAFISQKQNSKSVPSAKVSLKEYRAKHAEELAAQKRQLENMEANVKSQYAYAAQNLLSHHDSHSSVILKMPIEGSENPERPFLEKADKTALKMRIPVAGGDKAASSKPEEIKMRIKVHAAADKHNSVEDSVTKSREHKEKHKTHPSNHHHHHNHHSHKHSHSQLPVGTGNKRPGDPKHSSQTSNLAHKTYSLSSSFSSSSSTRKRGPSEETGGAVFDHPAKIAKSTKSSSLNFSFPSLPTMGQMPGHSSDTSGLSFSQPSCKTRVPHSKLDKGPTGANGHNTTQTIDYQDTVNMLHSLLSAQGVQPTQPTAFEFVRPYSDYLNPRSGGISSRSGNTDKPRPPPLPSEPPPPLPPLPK
T4 sequence (Q00534 whole entry): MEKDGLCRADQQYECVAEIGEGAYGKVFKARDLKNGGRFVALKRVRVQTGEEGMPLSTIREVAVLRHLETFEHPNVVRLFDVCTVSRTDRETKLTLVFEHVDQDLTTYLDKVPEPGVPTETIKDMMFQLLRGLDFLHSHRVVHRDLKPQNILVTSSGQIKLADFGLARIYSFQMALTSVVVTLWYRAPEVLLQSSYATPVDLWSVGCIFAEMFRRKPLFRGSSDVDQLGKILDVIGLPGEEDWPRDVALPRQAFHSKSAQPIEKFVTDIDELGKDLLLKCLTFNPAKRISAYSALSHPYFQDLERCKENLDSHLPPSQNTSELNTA
T4 sequence (P30281 whole entry partner): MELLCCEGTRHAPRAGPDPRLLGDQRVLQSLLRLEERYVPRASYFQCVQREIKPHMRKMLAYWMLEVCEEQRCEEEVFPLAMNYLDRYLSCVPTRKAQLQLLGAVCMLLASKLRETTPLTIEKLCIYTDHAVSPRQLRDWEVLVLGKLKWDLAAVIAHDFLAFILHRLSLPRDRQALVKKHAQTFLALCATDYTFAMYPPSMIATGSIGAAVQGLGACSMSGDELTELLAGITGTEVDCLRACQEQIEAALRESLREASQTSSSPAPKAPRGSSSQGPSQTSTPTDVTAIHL
CDK7 CyclinH, sequence (P50613 whole entry): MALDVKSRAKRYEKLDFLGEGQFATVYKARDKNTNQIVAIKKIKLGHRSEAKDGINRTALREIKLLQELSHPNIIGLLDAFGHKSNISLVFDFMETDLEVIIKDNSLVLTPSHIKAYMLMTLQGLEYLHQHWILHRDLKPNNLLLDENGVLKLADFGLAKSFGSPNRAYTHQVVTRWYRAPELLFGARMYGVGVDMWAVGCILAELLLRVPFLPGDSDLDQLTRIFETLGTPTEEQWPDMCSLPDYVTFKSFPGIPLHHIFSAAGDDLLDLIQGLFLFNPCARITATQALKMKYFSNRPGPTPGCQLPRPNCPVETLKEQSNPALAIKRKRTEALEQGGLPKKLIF
CDK7 CyclinH, sequence (P51946 whole entry partner): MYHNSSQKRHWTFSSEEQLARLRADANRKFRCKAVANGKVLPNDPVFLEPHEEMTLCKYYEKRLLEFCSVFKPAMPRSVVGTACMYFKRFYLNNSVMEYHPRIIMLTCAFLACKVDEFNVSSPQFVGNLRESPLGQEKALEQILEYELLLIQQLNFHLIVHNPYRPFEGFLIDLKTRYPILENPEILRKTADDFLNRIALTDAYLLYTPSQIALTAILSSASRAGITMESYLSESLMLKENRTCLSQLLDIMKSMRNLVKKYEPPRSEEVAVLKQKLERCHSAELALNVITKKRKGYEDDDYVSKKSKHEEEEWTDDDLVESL
CDK7 CyclinH, sequence (P51948 whole entry partner): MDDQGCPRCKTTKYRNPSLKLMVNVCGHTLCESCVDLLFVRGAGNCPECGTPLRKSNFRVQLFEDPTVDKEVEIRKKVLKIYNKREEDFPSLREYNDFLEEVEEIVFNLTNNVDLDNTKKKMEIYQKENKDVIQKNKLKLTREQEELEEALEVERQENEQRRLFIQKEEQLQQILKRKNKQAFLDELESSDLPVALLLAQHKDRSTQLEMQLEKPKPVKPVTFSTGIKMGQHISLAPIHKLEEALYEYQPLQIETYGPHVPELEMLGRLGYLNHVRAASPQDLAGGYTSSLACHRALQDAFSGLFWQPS

IC50 (CDK4-CYCLIND1; [3]) [nM] | IC50 (CDK2-CYCLINE) [nM] | IC50 (CDK9-CYCLINT1; [4]) [nM] | IC50 (CDK2-CYCLINA; [5]) [nM] | IC50 (CDK6-CYCLIND3; [6]) [nM] | IC50 (LXFA A549) [nM] | IC50 (LEXFAM MV4-11) [nM] | IC50 (MAXFLB MCF7 (ER+)) [nM] | IC50 (LXFL NCl-H1299) [nM] | SMILES | IC50 (all cell lines tested) [nM] | IC50 (MEXF WM-266-4) [nM] | IC50 (MAXFTN ZR-75-1 (ER+)) [nM] | also measured
2.96 | 4240 | 198 | 3120 | 3.26 | – | – | – | – | O=C1NCC[C@@]12Cc1cnc(Nc3ccc(N4CCNCC4)cn3)nc1N(C1CCCC1)C2=O [Example D58, (S)-8-cyclopentyl-2-((5-(piperazin-1-yl)pyridin-2-yl)amino)-5,8-dihydro-7H-spiro[pyrido[2,3-d]pyrimidine-6,3′-pyrrolidine]-2′,7-dione] | – | – | – | –
1050 | > 100000 | > 100000 | > 100000 | 2010 | – | – | – | – | O=C1NCC[C@]12Cc1cnc(Nc3ccc(N4CCNCC4)cn3)nc1N(C1CCCC1)C2=O [Example D57, (R)-8-cyclopentyl-2-((5-(piperazin-1-yl)pyridin-2-yl)amino)-5,8-dihydro-7H-spiro[pyrido[2,3-d]pyrimidine-6,3′-pyrrolidine]-2′,7-dione] | – | – | – | –
1.4 | 104 | 11.1 | 48.2 | 2.67 | – | – | – | – | O=C1NCC[C@@]12Cc1cnc(Nc3ccc(N4CCNCC4)cc3)nc1N(C1CCCC1)C2=O [Example D56, (S)-8-cyclopentyl-2-((4-(piperazin-1-yl)phenyl)amino)-5,8-dihydro-7H-spiro[pyrido[2,3-d]pyrimidine-6,3′-pyrrolidine]-2′,7-dione] | – | – | – | –
251 | 8880 | 1800 | 6000 | 519 | – | – | – | – | O=C1NCC[C@]12Cc1cnc(Nc3ccc(N4CCNCC4)cc3)nc1N(C1CCCC1)C2=O [Example D55, (R)-8-cyclopentyl-2-((4-(piperazin-1-yl)phenyl)amino)-5,8-dihydro-7H-spiro[pyrido[2,3-d]pyrimidine-6,3′-pyrrolidine]-2′,7-dione] | – | – | – | –

The next lines start with the compound.

SMILES | IC50 (CDK4-CYCLIND1; [3]) [nM] | IC50 (CDK2-CYCLINE) [nM] | IC50 (CDK9-CYCLINT1; [4]) [nM] | IC50 (CDK2-CYCLINA; [5]) [nM] | IC50 (CDK6-CYCLIND3; [6]) [nM] | IC50 (LXFA A549) [nM] | IC50 (LEXFAM MV4-11) [nM] | IC50 (MAXFLB MCF7 (ER+)) [nM] | IC50 (LXFL NCl-H1299) [nM] | IC50 (all cell lines tested) [nM] | IC50 (MEXF WM-266-4) [nM] | IC50 (MAXFTN ZR-75-1 (ER+)) [nM] | also measured
CC(C)N1CCN(c2ccc(Nc3ncc4c(n3)N(C3CCCC3)C(=O)[C@@]3(CCNC3=O)C4)cc2F)CC1 [Example D53, (R)-8-cyclopentyl-2-((3-fluoro-4-(4-isopropylpiperazin-1-yl)phenyl)amino) -5,8-dihydro-7H-spiro[pyrido[2,3-d]pyrimidine-6,3′-pyrrolidine]-2′,7-dione] | 178 | 12100 | – | 9670 | 384 | – | – | – | – | – | – | – | –
CN(C)[C@@H]1CCN(c2ccc(Nc3ncc4c(n3)N(C3CCCC3)C(=O)[C@]3(CCNC3=O)C4)cc2F)C1 [Example D176, (S)-8-cyclopentyl-2-((4-((R)-3-(dimethylamino)pyrrolidin-1-yl)-3-fluorophenyl)amino)-5,8-dihydro-7H-spiro[pyrido[2,3-d]pyrimidine-6,3′-pyrrolidine]-2′,7-dione] | – | – | – | – | – | 440 | 28 | 62 | 229 | 179 | 548 | 648 | IC50 (CDK4-CYCLIND1; CDK4 CyclinD1 IC50, Table 4a, a second value in parentheses for some compounds): 1.12 nM and 0.64 nM; IC50 (CDK9-CYCLINT1; Table 4a, read-out: CDK9 CyclinT1 IC50): 2.73 nM; IC50 (LEXFAL MOLT-4): 97 nM; IC50 (MAXFTN MDA-MB-231 (ER−)): 172 nM; IC50 (CDK2-CYCLINA; Table 4a, read-out: CDK2 CyclinA IC50): 33.3 nM; IC50 (CDK7 CyclinH): 126 nM; IC50 (CDK6-CYCLIND3; Table 4a, read-out: CDK6 CyclinD3 IC50): 2.07 nM
CN1CCN(c2ccc(Nc3ncc4c(n3)N(C3CCCC3)C(=O)[C@@]3(CCNC3=O)C4)cc2F)CC1 [Example D51, (R)-8-cyclopentyl-2-((3-fluoro-4-(4-methylpiperazin-1-yl)phenyl)amino)-5,8-dihydro-7H-spiro[pyrido[2,3-d]pyrimidine-6,3′-pyrrolidine]-2′,7-dione] | 211 | 11500 | 1150 | 5940 | 444 | – | – | – | – | – | – | – | –
O=C1NCC[C@@]12Cc1cnc(Nc3ccc(N4CCNCC4)c(F)c3)nc1N(C1CCCC1)C2=O [Example D50, (S)-8-cyclopentyl-2-((3-fluoro-4-(piperazin-1-yl)phenyl)amino)-5,8-dihydro-7H-spiro[pyrido[2,3-d]pyrimidine-6,3′-pyrrolidine]-2′,7-dione] | 0.78 | 62.4 | 4.37 | 29.1 | 1.29 | 338 | ≤ 10 | 80 | 187 | 173 | 46 | 23300 | IC50 (LEXFAL MOLT-4): 101 nM; IC50 (MAXFTN MDA-MB-231 (ER−)): 150 nM
CC(C)N1CCN(c2ccc(Nc3ncc4c(n3)N(C3CCCC3)C(=O)[C@]3(CCNC3=O)C4)cc2F)CC1 [Example D54, (S)-8-cyclopentyl-2-((3-fluoro-4-(4-isopropylpiperazin-1-yl)phenyl)amino)-5,8-dihydro-7H-spiro[pyrido[2,3-d]pyrimidine-6,3′-pyrrolidine]-2′,7-dione] | 0.822 | 106 | – | 45.6 | 1.65 | 1400 | 10 | 188 | 212 | 352 | 331 | 10300 | –
CN1CCN(c2ccc(Nc3ncc4c(n3)N(C3CCCC3)C(=O)[C@]3(CCNC3=O)C4)cc2F)CC1 [Example D52, (S)-8-cyclopentyl-2-((3-fluoro-4-(4-methylpiperazin-1-yl)phenyl)amino)-5,8-dihydro-7H-spiro[pyrido[2,3-d]pyrimidine-6,3′-pyrrolidine]-2′,7-dione] | 0.904 | 101 | 5.75 | 53.1 | 1.94 | 257 | ≤ 10 | 122 | 151 | 184 | 509 | 925 | bioavailability ([1]; oral 100 mg/kg versus IV 30 mg/kg, read-out: BIOAVAILABILITY F): 43.9%; AUC [1, 7]: 37700 ng·h/mL; Cmax [1, 7]: 4350 ng/mL; MRT [1, 7]: 5.48 h; half-life [1, 7]: 7.1 h; IC50 (MAXFTN MDA-MB-231 (ER−)): 318 nM; Cmax [2]: 6360 ng/mL; clearance [2]: 19.3 mL/min/kg; half-life [2]: 4.45 h
O=C1NCC[C@]12Cc1cnc(Nc3ccc(N4CCNCC4)c(F)c3)nc1N(C1CCCC1)C2=O [Example D49, (R)-8-cyclopentyl-2-((3-fluoro-4-(piperazin-1-yl)phenyl)amino)-5,8-dihydro-7H-spiro[pyrido[2,3-d]pyrimidine-6,3′-pyrrolidine]-2′,7-dione] | 136 | 5660 | 1240 | 3410 | 360 | – | – | – | – | – | – | – | –
